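96-well plates; 48 h exposure; 5 concentrations. Endpoints by linear interpolation between flanking doses. Not reached: highest tested concentration assigned. GI50: concentration for 50% inhibition of growth.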 Activity calls are given as the source filed them. Cut-off read from the data, not from the text of the source: active = GI50 up to about 1.1 µM and inactive = higher.
Legend:
Test in all cases: NCI-60 cell line screen, 48 h
SF-539 = test system: SF-539
PC-3 = test system: PC-3
CCRF-CEM = test system: CCRF-CEM
RPMI-8226 = test system: RPMI-8226
IGROV-1 = test system: IGROV-1
NCI-H23 = test system: NCI-H23
HCT-15 = test system: HCT-15
TK-10 = test system: TK-10
SK-OV-3 = test system: SK-OV-3
COLO 205 = test system: COLO 205
BT-549 = test system: BT-549
UACC-62 = test system: UACC-62
MDA-N = test system: MDA-N
SN12C = test system: SN12C
NCI-H460 = test system: NCI-H460
HOP-62 = test system: HOP-62
MDA-MB-435 = test system: MDA-MB-435
SF-268 = test system: SF-268
Malme-3M = test system: Malme-3M
Hs-578T = test system: Hs-578T

| SMILES | GI50 (SF-539) | GI50 (PC-3) | GI50 (CCRF-CEM) | GI50 (RPMI-8226) | GI50 (IGROV-1) | GI50 (NCI-H23) | GI50 (HCT-15) | GI50 (TK-10) | GI50 (SK-OV-3) | GI50 (COLO 205) | GI50 (BT-549) | GI50 (UACC-62) | GI50 (MDA-N) | GI50 (SN12C) | GI50 (NCI-H460) | GI50 (HOP-62) | GI50 (MDA-MB-435) | GI50 (SF-268) | GI50 (Malme-3M) | GI50 (Hs-578T) |
| --- | --- | --- | --- | --- | --- | --- | --- | --- | --- | --- | --- | --- | --- | --- | --- | --- | --- | --- | --- | --- |
| O=C(O)Cc1c[nH]c2ccc(F)cc12 | > 100 µM (inactive) | > 100 µM (inactive) | > 100 µM (inactive) | > 100 µM (inactive) | > 100 µM (inactive) | > 100 µM (inactive) | > 100 µM | > 100 µM (inactive) | > 100 µM (inactive) | > 100 µM (inactive) | > 100 µM (inactive) | > 100 µM (inactive) | > 100 µM (inactive) | > 100 µM (inactive) | > 100 µM (inactive) | > 100 µM (inactive) | > 100 µM (inactive) | – | – | – |
| O=C(Nc1nc2ncn(CCOC(=O)c3ccccc3)c2c(=O)[nH]1)c1ccccc1 | 10.8 µM (inactive) | 47.2 µM (inactive) | 9.71 µM (inactive) | 6.1 µM (inactive) | 21 µM (inactive) | 20.1 µM (inactive) | 4.7 µM | > 100 µM (inactive) | > 50.7 µM (inactive) | 8.47 µM (inactive) | – | 9.12 µM (inactive) | 2.54 µM (inactive) | 11.8 µM (inactive) | 8.43 µM (inactive) | 20.4 µM (inactive) | 2.48 µM (inactive) | 26.2 µM (inactive) | 42.3 µM (inactive) | 13.1 µM (inactive) |
| CCc1cccc(CC)c1Nc1nc2c(s1)C(=O)c1ccccc1C2=O | 24.2 µM (inactive) | 13.3 µM (inactive) | 38.9 µM (inactive) | 24.7 µM (inactive) | 12.2 µM (inactive) | 15.3 µM (inactive) | 25.7 µM | 21.2 µM (inactive) | 27.3 µM (inactive) | 22.9 µM (inactive) | – | 17.2 µM (inactive) | 17.5 µM (inactive) | 15.8 µM (inactive) | 16.9 µM (inactive) | 16 µM (inactive) | 17.5 µM (inactive) | 16.9 µM (inactive) | 16 µM (inactive) | 22.2 µM (inactive) |
| C[C@]12CCC(=O)C=C1CC[C@@H]1[C@@H]2CC[C@]2(C)C(=O)/C(=C\c3ccccc3)C[C@@H]12 | 21.6 µM (inactive) | 12.8 µM (inactive) | 2.8 µM (inactive) | 10.9 µM (inactive) | 51.3 µM (inactive) | 14.2 µM (inactive) | 21.9 µM | 44.7 µM (inactive) | 72.3 µM (inactive) | 24.2 µM (inactive) | 25.8 µM (inactive) | 23.4 µM (inactive) | 16 µM (inactive) | 15.1 µM (inactive) | 17.1 µM (inactive) | 38.6 µM (inactive) | 24.9 µM (inactive) | – | 29.4 µM (inactive) | – |
| O=C(O)/C=C/C(=O)O [FUMARIC ACID] | > 100 µM (inactive) | > 100 µM (inactive) | > 100 µM (inactive) | > 100 µM (inactive) | > 100 µM (inactive) | > 100 µM (inactive) | > 100 µM | > 100 µM (inactive) | – | > 100 µM (inactive) | – | – | > 100 µM (inactive) | > 100 µM (inactive) | > 100 µM (inactive) | > 100 µM (inactive) | > 100 µM (inactive) | > 100 µM (inactive) | > 100 µM (inactive) | > 100 µM (inactive) |
| Cn1cc(C[C@@H](N)C(=O)O)c2ccccc21 [INDOXIMOD] | > 100 µM (inactive) | > 100 µM (inactive) | > 100 µM (inactive) | > 100 µM (inactive) | > 100 µM (inactive) | > 100 µM (inactive) | > 100 µM | > 100 µM (inactive) | > 100 µM (inactive) | > 100 µM (inactive) | > 100 µM (inactive) | > 100 µM (inactive) | > 100 µM (inactive) | > 100 µM (inactive) | > 100 µM (inactive) | > 100 µM (inactive) | > 100 µM (inactive) | > 100 µM (inactive) | > 100 µM (inactive) | – |
| COc1ccc(COCC[C@H](C)OC2OC(CO)C(O)C(O)C2O)cc1 (stereo partly specified) | > 100 µM (inactive) | > 100 µM (inactive) | > 100 µM (inactive) | > 100 µM (inactive) | > 100 µM (inactive) | > 100 µM (inactive) | > 100 µM | > 100 µM (inactive) | > 100 µM (inactive) | > 100 µM (inactive) | > 100 µM (inactive) | > 100 µM (inactive) | – | > 100 µM (inactive) | > 100 µM (inactive) | > 100 µM (inactive) | > 100 µM (inactive) | > 100 µM (inactive) | – | > 100 µM (inactive) |
| CC(C)[C@H](NC(=O)OCc1ccccc1)C(=O)N[C@H](/C=C/C(=O)OC(C)(C)C)CO | > 100 µM (inactive) | 68.1 µM (inactive) | 28.1 µM (inactive) | – | > 100 µM (inactive) | > 100 µM (inactive) | > 100 µM | > 100 µM (inactive) | > 100 µM (inactive) | 80.4 µM (inactive) | – | > 100 µM (inactive) | > 100 µM (inactive) | > 100 µM (inactive) | > 100 µM (inactive) | > 100 µM (inactive) | > 100 µM (inactive) | > 100 µM (inactive) | > 100 µM (inactive) | > 100 µM (inactive) |
| COc1ccc(/C=C/C(=O)CC(=O)/C=C/c2ccc(OC)cc2)cc1 | 30.3 µM (inactive) | 19.9 µM (inactive) | 20.9 µM (inactive) | 38.1 µM (inactive) | > 100 µM (inactive) | 8.53 µM (inactive) | 42.9 µM | – | > 100 µM (inactive) | 69.5 µM (inactive) | – | 54.2 µM (inactive) | 20.7 µM (inactive) | 61.5 µM (inactive) | 33 µM (inactive) | > 100 µM (inactive) | 38.6 µM (inactive) | 46.3 µM (inactive) | 34.5 µM (inactive) | 36.4 µM (inactive) |
| c1ccc2c(c1)sc1c3cnccc3ccc21 | 82.2 µM (inactive) | – | – | 0.0697 µM (active) | 25.3 µM (inactive) | > 100 µM (inactive) | > 100 µM | 51.2 µM (inactive) | > 100 µM (inactive) | 90.8 µM (inactive) | > 100 µM (inactive) | 80.4 µM (inactive) | – | > 100 µM (inactive) | 24.9 µM (inactive) | > 100 µM (inactive) | > 100 µM (inactive) | > 100 µM (inactive) | 66.8 µM (inactive) | 29 µM (inactive) |
| Cc1ccc(S(=O)(=O)n2c3ccc(Br)cc3c3nc4ccccc4nc32)cc1 | – | > 100 µM (inactive) | > 100 µM (inactive) | > 100 µM (inactive) | 0.689 µM (active) | > 100 µM (inactive) | > 100 µM | > 100 µM (inactive) | – | > 100 µM (inactive) | – | > 100 µM (inactive) | > 100 µM (inactive) | > 100 µM (inactive) | > 100 µM (inactive) | > 100 µM (inactive) | > 100 µM (inactive) | > 100 µM (inactive) | – | > 100 µM (inactive) |
| OC(c1ccccc1)c1c(-c2ccccc2)[nH]c(-c2ccccc2)c1C(O)c1ccccc1 (stereo unspecified) | 2.95 µM (inactive) | 2.54 µM (inactive) | 2.65 µM (inactive) | 2.09 µM (inactive) | 3.18 µM (inactive) | 3.52 µM (inactive) | 3.76 µM | 4.44 µM (inactive) | 4.25 µM (inactive) | 1.74 µM (inactive) | – | 2.84 µM (inactive) | 2.59 µM (inactive) | 2.38 µM (inactive) | 3.06 µM (inactive) | 4.58 µM (inactive) | 3.18 µM (inactive) | 4.16 µM (inactive) | 2.59 µM (inactive) | 3.76 µM (inactive) |
| CC(=O)OCC1OC(n2c(C)c(C(C)=O)c(-c3ccc(Cl)cc3)c(C#N)c2=S)C(OC(C)=O)C(OC(C)=O)C1OC(C)=O (stereo unspecified) | > 100 µM (inactive) | > 100 µM (inactive) | > 100 µM (inactive) | – | > 100 µM (inactive) | > 100 µM (inactive) | > 100 µM | > 100 µM (inactive) | > 100 µM (inactive) | > 100 µM (inactive) | – | > 100 µM (inactive) | > 100 µM (inactive) | > 100 µM (inactive) | > 100 µM (inactive) | > 100 µM (inactive) | > 100 µM (inactive) | > 100 µM (inactive) | > 100 µM (inactive) | – |
| S=c1oc(CCCCCCCCc2nn(CNc3ccc(Cl)cc3)c(=S)o2)nn1CNc1ccc(Cl)cc1 | – | 29.3 µM (inactive) | – | 6.78 µM (inactive) | > 100 µM (inactive) | 99.3 µM (inactive) | > 100 µM | > 100 µM (inactive) | > 100 µM (inactive) | 7.38 µM (inactive) | > 100 µM (inactive) | 3.88 µM (inactive) | 43.4 µM (inactive) | > 100 µM (inactive) | > 100 µM (inactive) | 7.52 µM (inactive) | 10.4 µM (inactive) | > 100 µM (inactive) | > 100 µM (inactive) | – |
| Cc1ccc(C)c(N2C(=O)C(=O)C(c3nc4ccccc4s3)C(=O)C2=O)c1 | > 100 µM (inactive) | – | > 100 µM (inactive) | > 100 µM (inactive) | > 100 µM (inactive) | > 100 µM (inactive) | > 100 µM | > 100 µM (inactive) | > 100 µM (inactive) | > 100 µM (inactive) | – | > 100 µM (inactive) | – | > 100 µM (inactive) | > 100 µM (inactive) | > 100 µM (inactive) | – | > 100 µM (inactive) | > 100 µM (inactive) | – |
| CN(C)C(=S)SCC(=O)Nc1ccccc1 | – | – | > 100 µM (inactive) | 94.2 µM (inactive) | > 100 µM (inactive) | > 100 µM (inactive) | > 100 µM | – | > 100 µM (inactive) | > 100 µM (inactive) | > 100 µM (inactive) | > 100 µM (inactive) | > 100 µM (inactive) | > 100 µM (inactive) | > 100 µM (inactive) | > 100 µM (inactive) | > 100 µM (inactive) | > 100 µM (inactive) | > 100 µM (inactive) | > 100 µM (inactive) |

Source: ChEMBL document CHEMBL1201862, “PubChem BioAssay data set” (2004)
